Test [1] can be described thus: DRUGMATRIX: Sodium/nucleoside co-transporter radioligand binding (ligand: nitrobenzylthioinosine). Format: cell membranes, Cavia porcellus, Dunkin-Hartley, Cerebral cortex, Membrane. The note with it: Not Active = under 50% inhibition at 10 µM.
Test [2] deals with 5-hydroxytryptamine receptor 2B (Homo sapiens, UniProt P41595). Format: cell membranes, CHO-K1, Membrane. The following applies: cho-k1.
Test [3] addresses T1, 5-hydroxytryptamine receptor 2C (Homo sapiens, UniProt P28335).
T1 sequence (P28335 whole entry): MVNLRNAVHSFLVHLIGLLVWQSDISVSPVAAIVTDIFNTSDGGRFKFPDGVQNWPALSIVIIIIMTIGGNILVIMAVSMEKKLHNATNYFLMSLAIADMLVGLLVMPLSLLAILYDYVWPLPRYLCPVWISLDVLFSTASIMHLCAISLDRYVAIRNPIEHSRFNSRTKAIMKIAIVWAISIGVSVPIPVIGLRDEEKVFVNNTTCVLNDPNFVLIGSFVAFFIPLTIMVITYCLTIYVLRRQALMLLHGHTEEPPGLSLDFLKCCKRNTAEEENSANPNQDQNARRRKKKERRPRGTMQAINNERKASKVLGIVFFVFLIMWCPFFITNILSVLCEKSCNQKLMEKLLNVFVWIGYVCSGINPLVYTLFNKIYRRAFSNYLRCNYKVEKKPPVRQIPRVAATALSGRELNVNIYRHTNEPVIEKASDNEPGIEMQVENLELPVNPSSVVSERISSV
The experiment in a line: DRUGMATRIX: Serotonin (5-Hydroxytryptamine) 5-HT2C radioligand binding (ligand: [3H] Mesulergine). The note with it: Not Active = under 50% inhibition at 10 µM. Format: cell membranes, CHO-K1, Membrane.

Test [4] can be described thus: DRUGMATRIX: Glutamate, AMPA radioligand binding (ligand: [3H] AMPA). Format: cell membranes, Rattus norvegicus, Wistar, Cerebral cortex, Membrane. The note with it: Not Active = under 50% inhibition at 10 µM.
A short description of test [5]: DRUGMATRIX: Imidazoline I2, Central radioligand binding (ligand: [3H] Idazoxan). The following applies: Not Active = under 50% inhibition at 10 µM. Format: cell membranes, Rattus norvegicus, Wistar, Cerebral cortex, Membrane.
Test [6] addresses T2, Neuropeptide Y receptor type 2 (Homo sapiens, UniProt P49146).
T2 sequence (P49146 whole entry): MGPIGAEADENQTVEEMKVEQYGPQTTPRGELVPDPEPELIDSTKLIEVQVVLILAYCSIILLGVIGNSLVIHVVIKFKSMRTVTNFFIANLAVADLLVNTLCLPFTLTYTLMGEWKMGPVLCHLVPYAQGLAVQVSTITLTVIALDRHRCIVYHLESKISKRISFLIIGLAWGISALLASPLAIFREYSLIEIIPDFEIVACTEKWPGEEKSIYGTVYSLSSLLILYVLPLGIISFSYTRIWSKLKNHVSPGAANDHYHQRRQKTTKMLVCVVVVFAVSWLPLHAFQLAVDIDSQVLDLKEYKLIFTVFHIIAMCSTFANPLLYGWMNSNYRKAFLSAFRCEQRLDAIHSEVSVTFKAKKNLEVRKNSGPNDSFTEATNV
Format: cell membranes, Membrane. The following applies: kan-ts.

For test [7], the target named is Kappa-type opioid receptor (Homo sapiens, UniProt P41145). The experiment in a line: DRUGMATRIX: Opiate kappa (OP2, KOP) radioligand binding (ligand: [3H] Diprenorphine). The note with it: hek293; Not Active = under 50% inhibition at 10 µM. Format: cell membranes, HEK293, Membrane.
Test [8] is described as follows: DRUGMATRIX: Platelet-Derived Growth Factor (PDGF) radioligand binding (ligand: [125I] PDGF). The following applies: nih3t3; Not Active = under 50% inhibition at 10 µM. Format: cell-based.
The target in a further test is T3, Interstitial collagenase (Homo sapiens, UniProt P03956).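 Further: MMP-1 enzyme inhibition assay using a peptide substrate; in other assays of this panel Not Active means under 50% inhibition at 10 µM.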
T3 sequence (P03956 whole entry): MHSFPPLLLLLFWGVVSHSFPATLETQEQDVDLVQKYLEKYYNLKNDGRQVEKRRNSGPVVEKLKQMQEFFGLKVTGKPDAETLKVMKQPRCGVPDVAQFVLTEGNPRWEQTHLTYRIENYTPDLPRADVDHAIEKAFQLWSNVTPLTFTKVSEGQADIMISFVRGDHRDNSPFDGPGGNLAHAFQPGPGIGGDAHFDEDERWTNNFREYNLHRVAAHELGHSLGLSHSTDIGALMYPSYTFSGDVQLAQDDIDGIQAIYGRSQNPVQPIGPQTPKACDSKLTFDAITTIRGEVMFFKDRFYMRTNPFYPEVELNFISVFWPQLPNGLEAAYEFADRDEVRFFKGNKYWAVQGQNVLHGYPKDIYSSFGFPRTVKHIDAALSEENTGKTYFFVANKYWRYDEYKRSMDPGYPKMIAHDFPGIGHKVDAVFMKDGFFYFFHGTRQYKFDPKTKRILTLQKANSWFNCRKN
Kind of test: biochemical. Format: tissue-based, Rheumatoid synovial fibroblasts.

The nature of test [9]: DRUGMATRIX: Purinergic P2X radioligand binding (ligand: [3H] alpha, beta-Methylene-ATP). Format: cell membranes, Oryctolagus cuniculus, New Zealand albino, Urinary bladder, Membrane. The following applies: Not Active = under 50% inhibition at 10 µM.

Sequence of Kappa-type opioid receptor (P41145 whole entry): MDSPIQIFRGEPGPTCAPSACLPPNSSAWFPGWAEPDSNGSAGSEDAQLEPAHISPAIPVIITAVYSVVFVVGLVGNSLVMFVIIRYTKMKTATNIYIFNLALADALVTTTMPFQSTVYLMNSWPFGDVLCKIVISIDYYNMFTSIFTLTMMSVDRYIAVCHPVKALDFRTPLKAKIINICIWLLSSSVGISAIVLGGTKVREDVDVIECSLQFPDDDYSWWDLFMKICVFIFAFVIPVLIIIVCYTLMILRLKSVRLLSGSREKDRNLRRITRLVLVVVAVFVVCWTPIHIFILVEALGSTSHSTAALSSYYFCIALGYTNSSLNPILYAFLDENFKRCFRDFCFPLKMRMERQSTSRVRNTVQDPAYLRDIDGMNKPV
Sequence of 5-hydroxytryptamine receptor 2B (P41595 whole entry): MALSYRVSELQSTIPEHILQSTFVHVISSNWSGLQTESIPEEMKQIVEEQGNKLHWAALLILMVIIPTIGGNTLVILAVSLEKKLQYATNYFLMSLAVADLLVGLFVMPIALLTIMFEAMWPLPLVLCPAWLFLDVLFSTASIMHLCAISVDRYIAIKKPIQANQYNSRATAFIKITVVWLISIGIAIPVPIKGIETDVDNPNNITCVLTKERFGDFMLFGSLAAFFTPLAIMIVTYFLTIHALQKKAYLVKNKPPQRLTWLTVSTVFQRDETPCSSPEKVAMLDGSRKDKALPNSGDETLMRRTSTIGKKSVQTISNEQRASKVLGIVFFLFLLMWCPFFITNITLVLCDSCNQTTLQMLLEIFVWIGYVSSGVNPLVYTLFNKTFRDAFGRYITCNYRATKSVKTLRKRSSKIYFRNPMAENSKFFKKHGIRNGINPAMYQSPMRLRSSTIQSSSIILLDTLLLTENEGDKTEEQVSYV

Regarding `CC1=C(CC(=O)O)c2cc(F)ccc2/C1=C\c1ccc([S+](C)[O-])cc1` (centres undefined), the IC50 entry in test [1], in test [2], in test [3] (cho-k1), in test [4], in test [5] and in [6] was “Not Active” throughout. In addition, the IC50 entry (in [7]; in test [8]; against Interstitial collagenase; in test [9]) was “Not Active” in each case. Moreover, the Ki entry in test [1], in test [4], in test [5], in test [8] and in [9] was “Not Active” each time.

On to `N[C@H](CSC(=S)NCc1ccccc1)C(=O)O`, for which the IC50 entry in test [1], in test [2], in test [3] (cho-k1), in [4], in [5] and in test [6] was “Not Active” throughout. In addition, the IC50 entry (in test [7]; in [8]; on Interstitial collagenase; in test [9]) was “Not Active” throughout. The Ki result in test [1], in test [4], in test [5], in test [8] and in test [9] was “Not Active” throughout.

Take `CC(=O)N[C@@H]1[C@H](Oc2c3cc4cc2Oc2ccc(cc2Cl)[C@@H](O[C@@H]2O[C@@H](CO)[C@@H](O)[C@H](O)[C@@H]2NC(C)=O)[C@@H]2NC(=O)[C@H](NC(=O)[C@@H]4NC(=O)[C@H]4NC(=O)[C@@H](Cc5ccc(c(Cl)c5)O3)NC(=O)[C@H](N)c3ccc(O)c(c3)Oc3cc(O)cc4c3)c3ccc(O)c(c3)-c3c(O[C@H]4O[C@H](CO)[C@@H](O)[C@@H](O)[C@@H]4O)cc(O)cc3[C@@H](C(=O)O)NC2=O)O[C@@H](CO)[C@@H](O)[C@@H]1O`: the IC50 result in test [1], in test [2], in [3] (cho-k1), in test [4], in [5] and in test [6] was “Not Active” throughout. The IC50 result (in test [7]; in test [8]; against Interstitial collagenase; in test [9]) was “Not Active” each time. Also, the Ki entry in test [1], in test [4], in test [5], in test [8] and in [9] was “Not Active” each time.

In the case of `Clc1ccc2c(c1)C(N1CCNCC1)=Nc1ccccc1O2` [AMOXAPINE], the IC50 result (in test [6]; in test [7]; against Interstitial collagenase) was “Not Active” each time.

For the compound `COc1cc2c(c(OC)c1OC)-c1ccc(OC)c(=O)cc1[C@@H](NC(C)=O)CC2` [COLCHICINE], the IC50 entry (in test [2]; in test [3] (cho-k1); in test [6]; at Interstitial collagenase) was “Not Active” each time.

As to `CN1CCC(=C2c3ccccc3C=Cc3ccccc32)CC1` [CYPROHEPTADINE], the IC50 in [3] (read-out: IC50) is 2.44 nM; in [6] it was “Not Active”; in test [7] it was “Not Active”; on Interstitial collagenase, “Not Active”. In addition, the Ki in [3] (read-out: Ki) is 1.28 nM.

`CC/C(=C(/CC)c1ccc(O)cc1)c1ccc(O)cc1` [DIETHYLSTILBESTROL]: the IC50 entry (in test [6]; on Interstitial collagenase) was “Not Active” in each case.

With `CC(=O)N1CCN(c2ccc(OCC3COC(Cn4ccnc4)(c4ccc(Cl)cc4Cl)O3)cc2)CC1` (centres undefined) [KETOCONAZOLE], the IC50 in [1] (read-out: IC50) is 4410 nM; in [2] it was “Not Active”; in test [3] (cho-k1), “Not Active”; in [4], “Not Active”; in [5], “Not Active”; in test [6], “Not Active”. Besides, the IC50 entry (in test [7]; in test [8]; against Interstitial collagenase; in [9]) was “Not Active” in each case. For the same compound, the Ki in test [1] (read-out: Ki) is 1510 nM; in test [4], “Not Active”; in test [5], “Not Active”; in test [8], “Not Active”; in test [9], “Not Active”.

Regarding `C=CCN1CC[C@]23c4c5ccc(O)c4O[C@H]2C(=O)CC[C@@]3(O)[C@H]1C5` [NALOXONE], the IC50 entry (in test [2]; in test [3] (cho-k1); in test [6]; at Interstitial collagenase) was “Not Active” each time.

Turning to `CC(C)NCC(O)COc1cccc2ccccc12` (centres undefined) [PROPRANOLOL], the IC50 entry (in [6]; in test [7]; against Interstitial collagenase) was “Not Active” each time.

For `O=C(c1ccc(OCCN2CCCCC2)cc1)c1c(-c2ccc(O)cc2)sc2cc(O)ccc12` [RALOXIFENE], the 50% inhibitory concentration (IC50) entry (in test [1]; in [4]; in test [5]; in test [6]; in [8]; on Interstitial collagenase) was “Not Active” each time. The IC50 entry in test [9] is listed as “Not Active”. For the same compound, the Ki entry in [1], in [4], in [5], in test [8] and in test [9] was “Not Active” throughout.

On to `CC(C)c1nc(CN(C)C(=O)N[C@H](C(=O)N[C@@H](Cc2ccccc2)C[C@H](O)[C@H](Cc2ccccc2)NC(=O)OCc2cncs2)C(C)C)cs1` [RITONAVIR], for which the IC50 entry in test [1], in [2], in [3] (cho-k1), in test [4], in test [5] and in test [6] was “Not Active” each time. Moreover, the IC50 entry (in [8]; against Interstitial collagenase; in [9]) was “Not Active” throughout. Moreover, the Ki entry in test [1], in [4], in test [5], in [8] and in test [9] was “Not Active” in each case.

As to `CC(C)(C)c1ccc(C(O)CCCN2CCC(C(O)(c3ccccc3)c3ccccc3)CC2)cc1` (centres undefined) [TERFENADINE], the IC50 result in test [1], in test [4], in test [5], in test [6], in [7] and in test [8] was “Not Active” in each case. Also, the IC50 entry (against Interstitial collagenase; in [9]) was “Not Active” throughout. The Ki entry in test [1], in [4], in test [5], in [8] and in test [9] was “Not Active” throughout.

For the compound `CC(=O)CC(c1ccccc1)c1c(O)c2ccccc2oc1=O` (centres undefined) [WARFARIN], the IC50 result in test [1], in [2], in [3] (cho-k1), in test [4], in [5] and in [6] was “Not Active” in each case. Also, the IC50 entry (in test [8]; on Interstitial collagenase; in test [9]) was “Not Active” in each case. Further, the Ki result in [1], in [4], in test [5], in [8] and in test [9] was “Not Active” in each case.

As a reminder, the IC50 is the concentration that inhibits the measured activity by half. Usually Ki stands for a measure of affinity in units of concentration, obtained from inhibition or displacement.

(Values after ChEMBL document CHEMBL1909046, “DrugMatrix in vitro pharmacology data”.)
